Numbers after ± are expanded uncertainties.
What was measured:
[1] = cn = amount concentration of the nth substance listed, in mol/dm3; details: 101 kPa, Liquid
[2] = specific heat capacity at constant pressure; cn = amount concentration of the nth substance listed, in mol/dm3; details: 101 kPa, Liquid, heat flux microcalorimetry

CC#N [acetonitrile] + [Cl-].c1ccc([P+](c2ccccc2)(c2ccccc2)c2ccccc2)cc1
c2 = 0
Details	mass density, 308.65 K [kg/m3]	mass density, 311.65 K [kg/m3]	mass density, 314.65 K [kg/m3]	specific heat capacity, 308.65 K [J/K/kg]	specific heat capacity, 311.65 K [J/K/kg]	specific heat capacity, 314.65 K [J/K/kg]
[1]	765.82 ± 2	762.77 ± 2	759.726 ± 2.1	–	–	–
[2]	–	–	–	2274.3 ± 45	2280.4 ± 46	2286.5 ± 46

CCO [ethanol] + [Cl-].c1ccc([P+](c2ccccc2)(c2ccccc2)c2ccccc2)cc1
c2 = 0
Details	mass density, 308.65 K [kg/m3]	mass density, 311.65 K [kg/m3]	mass density, 314.65 K [kg/m3]	specific heat capacity, 308.65 K [J/K/kg]	specific heat capacity, 311.65 K [J/K/kg]	specific heat capacity, 314.65 K [J/K/kg]
[1]	775.93 ± 1.9	773.4 ± 1.9	770.84 ± 2	–	–	–
[2]	–	–	–	2592.8 ± 52	2653.8 ± 53	2694.1 ± 54

CO [methanol] + [Cl-].c1ccc([P+](c2ccccc2)(c2ccccc2)c2ccccc2)cc1
c2 = 0
Details	mass density, 308.65 K [kg/m3]	mass density, 311.65 K [kg/m3]	mass density, 314.65 K [kg/m3]	specific heat capacity, 308.65 K [J/K/kg]	specific heat capacity, 311.65 K [J/K/kg]	specific heat capacity, 314.65 K [J/K/kg]
[1]	776.519 ± 1.9	773.896 ± 1.9	771.1 ± 2	–	–	–
[2]	–	–	–	2554.5 ± 51	2577 ± 52	2621 ± 52

[Cl-].c1ccc([P+](c2ccccc2)(c2ccccc2)c2ccccc2)cc1 [tetraphenylphosphonium chloride] + CC#N
Details	mass density, c1 = 0.005 [kg/m3]	mass density, c1 = 0.01 [kg/m3]	mass density, c1 = 0.02 [kg/m3]	mass density, c1 = 0.05 [kg/m3]	mass density, c1 = 0.1 [kg/m3]	specific heat capacity, c1 = 0.005 [J/K/kg]	specific heat capacity, c1 = 0.01 [J/K/kg]	specific heat capacity, c1 = 0.02 [J/K/kg]	specific heat capacity, c1 = 0.05 [J/K/kg]	specific heat capacity, c1 = 0.1 [J/K/kg]
[1], 308.65 K	767.478 ± 2	768.43 ± 2	772.35 ± 2	776.18 ± 1.9	784.14 ± 1.9	–	–	–	–	–
[1], 311.65 K	764.4 ± 2	765.22 ± 2	769.19 ± 2	773.42 ± 1.9	780.77 ± 1.9	–	–	–	–	–
[1], 314.65 K	762.76 ± 2	762.76 ± 2	766.82 ± 2	770.87 ± 2	777.19 ± 1.9	–	–	–	–	–
[2], 308.65 K	–	–	–	–	–	2269.4 ± 45	2269.1 ± 45	2258.9 ± 45	2255.3 ± 45	2238.7 ± 45
[2], 311.65 K	–	–	–	–	–	2275.5 ± 46	2277 ± 46	2267.8 ± 45	2265.6 ± 45	2250.6 ± 45
[2], 314.65 K	–	–	–	–	–	2281.3 ± 46	2282.6 ± 46	2274.3 ± 45	2267.5 ± 45	2257.9 ± 45

[Cl-].c1ccc([P+](c2ccccc2)(c2ccccc2)c2ccccc2)cc1 [tetraphenylphosphonium chloride] + CCO
Details	mass density, c1 = 0.005 [kg/m3]	mass density, c1 = 0.01 [kg/m3]	mass density, c1 = 0.02 [kg/m3]	mass density, c1 = 0.05 [kg/m3]	mass density, c1 = 0.1 [kg/m3]	specific heat capacity, c1 = 0.005 [J/K/kg]	specific heat capacity, c1 = 0.01 [J/K/kg]	specific heat capacity, c1 = 0.02 [J/K/kg]	specific heat capacity, c1 = 0.05 [J/K/kg]	specific heat capacity, c1 = 0.1 [J/K/kg]
[1], 308.65 K	777.31 ± 1.9	778.02 ± 1.9	778.83 ± 1.9	784.24 ± 1.9	791.62 ± 1.8	–	–	–	–	–
[1], 311.65 K	775.32 ± 1.9	775.16 ± 1.9	776.11 ± 1.9	781.91 ± 1.9	789.98 ± 1.9	–	–	–	–	–
[1], 314.65 K	772.48 ± 1.9	772.21 ± 1.9	773.38 ± 1.9	779.58 ± 1.9	787.77 ± 1.9	–	–	–	–	–
[2], 308.65 K	–	–	–	–	–	2520.9 ± 50	2545.7 ± 51	2549.3 ± 51	2555.5 ± 51	2570 ± 51
[2], 311.65 K	–	–	–	–	–	2581.5 ± 52	2600.7 ± 52	2606.3 ± 52	2607.1 ± 52	2623 ± 52
[2], 314.65 K	–	–	–	–	–	2627.1 ± 52	2638.3 ± 53	2650.8 ± 53	2650 ± 53	2633.7 ± 53

[Cl-].c1ccc([P+](c2ccccc2)(c2ccccc2)c2ccccc2)cc1 [tetraphenylphosphonium chloride] + CO
Details	mass density, c1 = 0.005 [kg/m3]	mass density, c1 = 0.01 [kg/m3]	mass density, c1 = 0.02 [kg/m3]	mass density, c1 = 0.05 [kg/m3]	mass density, c1 = 0.1 [kg/m3]	specific heat capacity, c1 = 0.005 [J/K/kg]	specific heat capacity, c1 = 0.01 [J/K/kg]	specific heat capacity, c1 = 0.02 [J/K/kg]	specific heat capacity, c1 = 0.05 [J/K/kg]	specific heat capacity, c1 = 0.1 [J/K/kg]
[1], 308.65 K	776.52 ± 1.9	779.51 ± 1.9	780.37 ± 1.9	787.22 ± 1.9	793.29 ± 1.8	–	–	–	–	–
[1], 311.65 K	774.51 ± 1.9	778.81 ± 1.9	777.85 ± 1.9	784.14 ± 1.9	790.42 ± 1.9	–	–	–	–	–
[1], 314.65 K	771.62 ± 1.9	775.7 ± 1.9	774.95 ± 1.9	782.06 ± 1.9	788.49 ± 1.9	–	–	–	–	–
[2], 308.65 K	–	–	–	–	–	2543.2 ± 51	2548.5 ± 51	2556.9 ± 51	2605.5 ± 52	2660.8 ± 53
[2], 311.65 K	–	–	–	–	–	2564.1 ± 51	2565.8 ± 51	2582.9 ± 52	2628.9 ± 53	2691.7 ± 54
[2], 314.65 K	–	–	–	–	–	2570.9 ± 51	2605.9 ± 52	2599.5 ± 52	2637.3 ± 53	2721.3 ± 54

[Cl-].c1ccc([P+](c2ccccc2)(c2ccccc2)c2ccccc2)cc1 [tetraphenylphosphonium chloride] + O
Details	mass density, c1 = 0.005 [kg/m3]	mass density, c1 = 0.01 [kg/m3]	mass density, c1 = 0.02 [kg/m3]	mass density, c1 = 0.05 [kg/m3]	mass density, c1 = 0.1 [kg/m3]	specific heat capacity, c1 = 0.005 [J/K/kg]	specific heat capacity, c1 = 0.01 [J/K/kg]	specific heat capacity, c1 = 0.02 [J/K/kg]	specific heat capacity, c1 = 0.05 [J/K/kg]	specific heat capacity, c1 = 0.1 [J/K/kg]
[1], 308.65 K	994.05 ± 0.54	995.67 ± 0.53	998.12 ± 0.52	996.84 ± 0.53	1001.06 ± 0.52	–	–	–	–	–
[1], 311.65 K	993.46 ± 0.54	994.88 ± 0.54	996.99 ± 0.52	995.58 ± 0.53	997.28 ± 0.53	–	–	–	–	–
[1], 314.65 K	991.77 ± 0.56	992.33 ± 0.55	995.43 ± 0.53	994.11 ± 0.54	995.93 ± 0.53	–	–	–	–	–
[2], 308.65 K	–	–	–	–	–	4202.5 ± 84	4203.6 ± 84	4207 ± 84	4217.3 ± 84	4229.9 ± 85
[2], 311.65 K	–	–	–	–	–	4203.6 ± 84	4206.5 ± 84	4209.8 ± 84	4218.4 ± 84	4241.9 ± 85
[2], 314.65 K	–	–	–	–	–	4203.8 ± 84	4208.4 ± 84	4211.1 ± 84	4219.7 ± 84	4244.7 ± 85

O [water] + [Cl-].c1ccc([P+](c2ccccc2)(c2ccccc2)c2ccccc2)cc1
c2 = 0
Details	mass density, 311.65 K [kg/m3]	mass density, 314.65 K [kg/m3]	specific heat capacity, 308.65 K [J/K/kg]	specific heat capacity, 311.65 K [J/K/kg]	specific heat capacity, 314.65 K [J/K/kg]
[1]	993.13 ± 0.55	991.68 ± 0.56	–	–	–
[2]	–	–	4182 ± 84	4182.2 ± 84	4182.4 ± 84
